Experiments:
[1] = system: MDA-MB-453; test: Cell viability, MDA-MB-453 breast cancer cells; assay type: cell-based; conditions: Homo sapiens; MDA-MB-453 (Her-2+), treated for 24 h
Protocol: Cell viability was evaluated by measuring the reduction in MTT to yield blue formazan. Cells were cultured in 96-well plates, allowed to attach overnight, and then treated with compounds. After treatment, MTT solution (1 mg/ml) was added to each well, and plates were incubated for another 4 h. Medium were removed, blue formazan was dissolved in DMSO, and the absorbance was read at 570 nm^20.

[2] = Preliminary acute toxicity assay; conditions: 21 days observation
Protocol: Normal mice were treated with 21a or 35a by oral route at 500 mg/kg/day for 5 consecutive days, following by 21 days of post-treatment observation. […] Detailed data for their toxicology and safety pharmacology studies will be carried out in the near future.
Female nu/nu mice (5 weeks old) were P.O. with vehicle (propylene glycol, 0.1 ml) or high dose of 21a (250 and 500 mg/kg) and 35a (500 mg/kg) for 5 days followed by observation of behavior and lethargy for 21 days.

[3] = system: MDA-MB-231 cells; test: Immunofluorescence staining LC3B and p62; assay type: cell-based, human; conditions: 5 μM and 10 μM, 24 h
Protocol: Cells were grown on sterile coverslips placed in a 6-well plate. After treatments, cells were fixed with 4% (w/v) paraformaldehyde and permeabilized with 0.2% (v/v) Triton X-100 in PBS. After blocking with 2% (w/v) bovine serum albumin in PBS, […] was detected using anti-LC3B and anti-p62 antibody followed by reaction with FITC or PE-conjugated secondary antibody (BD Biosciences). Coverslips were mounted on glass slides with Prolong Gold Antifade Reagent containing DAPI (Invitrogen), and fluorescence images were taken on a Leica Microsystems TCS SP2 Confocal Spectral microscope^26.

[4] = system: MDA-MB-231 cells; test: cDNA microarray; assay type: cell-based, human
Protocol: The cells were incubated with or without 21a. After exposure, cell pellets were collected, and the total RNA from each treatment was purified using the Qiagen RNeasy Mini Kit (Qiagen, Valencia, Calif., USA). The RNA purity was determined to check the quality at 260/280 nm using a NanoDrop 1000 Spectrophotometer (Thermo Fisher Scientific, Wilmington, Del., USA). mRNA was amplified and labeled using the Gene-Chip WT Sense Target Labeling and Control Reagents kit (Affymetrix, Santa Clara, Calif., USA) for expression analysis. The synthesized cDNA was labeled with fluorescence and then hybridized for 17 h using AffymetrixGeneChip Human Gene 1.0 ST array (Affymetrix) to determine microarray hybridization following the manufacturer's protocols. The arrays were subsequently washed using Fluidics Station 450 (Affymetrix), stained with streptavidin-phycoerythrin (Gene-Chip Hybridization, Wash, and Stain kit, Affymetrix), and scanned on a GeneChip Scanner 3000 (Affymetrix). The localized concentrations of fluorescent molecules were quantitated and analyzed using Expression Console Software (Affymetrix) with default RMA parameters as previously described (Chang et al. 2012; Liu et al. 2013). […]

COc1cc(/C=C/C(=O)/C=C(O)/C=C/c2ccc(OC(=O)C(C)(CO)CO)c(OC)c2)ccc1OC(=O)C(C)(CO)CO [Compound 21a, ((1E,3Z,6E)-3-Hydroxy-5-oxohepta-1,3,6-triene-1,7-diyl)bis(2-methoxy-4,1-phenylene) bis(3-hydroxy-2-(hydroxymethyl)-2-methylpropenoate)]
IC50 [1]: 3.97 ± 0.27 µM
behavior and death at end of experiment ([2]; P.O. 21a 250 and 500 mg/kg, 35a 500 mg/kg for 5 days): no behavior alternation and death
body weight and behavior change ([2]; oral 500 mg/kg/day for 5 consecutive days, vs untreated control): no significant difference
LC3B-positive and p62-positive cells [3]: significantly increased
genes down-regulated ([4]; at least 2.5 folds): 28 genes
genes up-regulated ([4]; at least 2.5 folds): 69 genes
log2 (Ratio) ATF3 ([4]; mRNA, MDA-MB-231 cells, 24-h treatment, ID PH_hs_0000057): 3.698
log2 (Ratio) IL12A ([4]; mRNA, MDA-MB-231 cells, 24-h treatment, ID PH_hs_0000076): 4.587
log2 (Ratio) DUSP2 ([4]; mRNA, MDA-MB-231 cells, 24-h treatment, ID PH_hs_0000156): 4.094
log2 (Ratio) SRGN ([4]; mRNA, MDA-MB-231 cells, 24-h treatment, ID PH_hs_0000255): 2.917
log2 (Ratio) MMP10 ([4]; mRNA, MDA-MB-231 cells, 24-h treatment, ID PH_hs_0000305): 4.942
log2 (Ratio) SLC25A25 ([4]; mRNA, MDA-MB-231 cells, 24-h treatment, ID PH_hs_0000566): 2.529
log2 (Ratio) DNAJB9 ([4]; mRNA, MDA-MB-231 cells, 24-h treatment, ID PH_hs_0000684): 3.854
log2 (Ratio) RND3 ([4]; mRNA, MDA-MB-231 cells, 24-h treatment, ID PH_hs_0000694): 2.626
log2 (Ratio) SESN2 ([4]; mRNA, MDA-MB-231 cells, 24-h treatment, ID PH_hs_0000852): 3.324
log2 (Ratio) OMA1 ([4]; mRNA, MDA-MB-231 cells, 24-h treatment, ID PH_hs_0000866): −2.613
log2 (Ratio) SENP5 ([4]; mRNA, MDA-MB-231 cells, 24-h treatment, ID PH_hs_0001262): 2.748
log2 (Ratio) SAT1 ([4]; mRNA, MDA-MB-231 cells, 24-h treatment, ID PH_hs_0002492): 3.366
log2 (Ratio) OSGEN1 ([4]; mRNA, MDA-MB-231 cells, 24-h treatment, ID PH_hs_0002700): 3.513
log2 (Ratio) C18orf25 ([4]; mRNA, MDA-MB-231 cells, 24-h treatment, ID PH_hs_0002812): 2.668
log2 (Ratio) ZNF77 ([4]; mRNA, MDA-MB-231 cells, 24-h treatment, ID PH_hs_0002971): 2.665
log2 (Ratio) PDGFC ([4]; mRNA, MDA-MB-231 cells, 24-h treatment, ID PH_hs_0003147): −2.534
log2 (Ratio) SMIM13 ([4]; mRNA, MDA-MB-231 cells, 24-h treatment, ID PH_hs_0003180): 2.646
log2 (Ratio) PPP1R15A ([4]; mRNA, MDA-MB-231 cells, 24-h treatment, ID PH_hs_0004421): 5.381
log2 (Ratio) GEM ([4]; mRNA, MDA-MB-231 cells, 24-h treatment, ID PH_hs_0004561): 3.997
log2 (Ratio) MMP1 ([4]; mRNA, MDA-MB-231 cells, 24-h treatment, ID PH_hs_0004751): 3.219
log2 (Ratio) LMNB1 ([4]; mRNA, MDA-MB-231 cells, 24-h treatment, ID PH_hs_0004988): −2.878
log2 (Ratio) ZFAND2A ([4]; mRNA, MDA-MB-231 cells, 24-h treatment, ID PH_hs_0006387): 6.274
log2 (Ratio) F2R ([4]; mRNA, MDA-MB-231 cells, 24-h treatment, ID PH_hs_0007383): −2.717
log2 (Ratio) TOP2A ([4]; mRNA, MDA-MB-231 cells, 24-h treatment, ID PH_hs_0009437): −3.052
log2 (Ratio) DUSP1 ([4]; mRNA, MDA-MB-231 cells, 24-h treatment, ID PH_hs_0010276): 4.189
log2 (Ratio) TXNIP|LOC101060503 ([4]; mRNA, MDA-MB-231 cells, 24-h treatment, ID PH_hs_0010634): −2.66
log2 (Ratio) H1F0 ([4]; mRNA, MDA-MB-231 cells, 24-h treatment, ID PH_hs_0012629): −2.89
log2 (Ratio) BRF2 ([4]; mRNA, MDA-MB-231 cells, 24-h treatment, ID PH_hs_0014119): 2.572
log2 (Ratio) HSPA1B ([4]; mRNA, MDA-MB-231 cells, 24-h treatment, ID PH_hs_0014155): 2.836
log2 (Ratio) METTL7A ([4]; mRNA, MDA-MB-231 cells, 24-h treatment, ID PH_hs_0014995): −3.653
log2 (Ratio) CLK1 ([4]; mRNA, MDA-MB-231 cells, 24-h treatment, ID PH_hs_0020147): 2.804
log2 (Ratio) DNAJC3 ([4]; mRNA, MDA-MB-231 cells, 24-h treatment, ID PH_hs_0021974): 3.011
log2 (Ratio) CLCF1 ([4]; mRNA, MDA-MB-231 cells, 24-h treatment, ID PH_hs_0022919): 2.961
log2 (Ratio) FRS2 ([4]; mRNA, MDA-MB-231 cells, 24-h treatment, ID PH_hs_0023008): 3.242
log2 (Ratio) C21orf91 ([4]; mRNA, MDA-MB-231 cells, 24-h treatment, ID PH_hs_0023556): 2.733
log2 (Ratio) HSPA5 ([4]; mRNA, MDA-MB-231 cells, 24-h treatment, ID PH_hs_0023711): 2.599
log2 (Ratio) BBS2 ([4]; mRNA, MDA-MB-231 cells, 24-h treatment, ID PH_hs_0023845): −3.269
log2 (Ratio) CBY1 ([4]; mRNA, MDA-MB-231 cells, 24-h treatment, ID PH_hs_0023862): −2.551
log2 (Ratio) TRIB3 ([4]; mRNA, MDA-MB-231 cells, 24-h treatment, ID PH_hs_0023894): 2.584
log2 (Ratio) CDKN1A ([4]; mRNA, MDA-MB-231 cells, 24-h treatment, ID PH_hs_0024155): 2.904
log2 (Ratio) ATP2A2 ([4]; mRNA, MDA-MB-231 cells, 24-h treatment, ID PH_hs_0024236): 2.548
log2 (Ratio) DNAJB4 ([4]; mRNA, MDA-MB-231 cells, 24-h treatment, ID PH_hs_0024315): 3.075
log2 (Ratio) C3orf52 ([4]; mRNA, MDA-MB-231 cells, 24-h treatment, ID PH_hs_0025319): 3.562
log2 (Ratio) CLU ([4]; mRNA, MDA-MB-231 cells, 24-h treatment, ID PH_hs_0025525): 3.198
log2 (Ratio) CTDSP1 ([4]; mRNA, MDA-MB-231 cells, 24-h treatment, ID PH_hs_0025966): −2.552
